Experimental data published in patent US10227331B2 (priority 2015, dated 2019).

Assays:
[1] = tested on: P. aeruginosa expressing IMP-1, efflux− (MB9799); assay: Efflux: concentration of MBL inhibitor which restores susceptibility to imipenem; type: cell-based, Pseudomonas aeruginosa; conditions: imipenem at 2 μg/mL, in the presence of a class A, C, D serine β-lactamase inhibitor closely related to relebactam
Description: (§1) The strain background is Pseudomonas aeruginosa PAO1.

[2] = tested on: Klebsiella pneumoniae expressing VIM-1 (IHMA599644); type: cell-based; conditions: with imipenem 1 μg/ml; 95% inhibition of bacterial growth
Protocol: (§2) Antibiotic Potentiation Activity: Determination of Synergistic Concentration
(§3) The bacterial strains tested included the clinical strains Escherichia coli expressing NDM-1 (CLB30005, CLB30016), Serratia marcescens expressing IMP-1 (CL5741), and Klebsiella pneumoniae expressing VIM-1 (IHMA599644). Inhibitor activity was measured in the presence and absence of imipenem in a 384-well microplate.
(§4) The clinical strains CLB30016, CL5741 and IHMA599644 were grown on trypticase soy agar containing 5% sheep's blood. The bacteria on agar plates were incubated at 35° C. with humidity overnight. The following day, individual colonies from each clinical strain were picked and resuspended in 5 ml saline to attain an OD600 of […], for CLB30016, CL5741 and IHMA599644, respectively. These were further diluted 1:100 into 1.1×CAMHB and used to inoculate the test wells as described below.
(§5) Imipenem in 10 mM 3-(N-morpholino)propanesulfonic acid (MOPS, pH 7) was stored in single use aliquots at −80° C. […] On the day of the assay, 4 μl of antibiotic was added to 45 ul of bacteria followed by 1 μl of test compound and mixed by pipetting and with an orbital shaker. The concentration of antibiotic used in the assay was 1 μg/ml. Microplates were covered and incubated at 35° C. for 22 hours to 24 hours. At the end of the incubation, absorbance was determined using a spectrophotometer.
(§6) For example, in general, the compounds of Examples 1-379 were determined to restore susceptibility to imipenem for one or more of the test organisms at concentrations of 100 μM or less.

[3] = tested on: Serratia marcescens expressing IMP-1 (CL5741); type: cell-based; conditions: with imipenem 1 μg/ml; 95% inhibition of bacterial growth
Protocol: as §2, §3, §4, §5, §6

[4] = tested on: Escherichia coli expressing NDM-1 (CLB30005, CLB30016); type: cell-based; conditions: with imipenem 1 μg/ml; 95% inhibition of bacterial growth
Protocol: as §2, §3, §4, §5, §6

NDM-1 = NDM-1 (Klebsiella pneumoniae, UniProt C7C422); assay: biochemical; type: biochemical; conditions: CCF2-FA substrate, 2 hours at 25° C; read-out: NDM-1 IC50
Chain of NDM-1 (C7C422 whole entry, looked up, species assumed): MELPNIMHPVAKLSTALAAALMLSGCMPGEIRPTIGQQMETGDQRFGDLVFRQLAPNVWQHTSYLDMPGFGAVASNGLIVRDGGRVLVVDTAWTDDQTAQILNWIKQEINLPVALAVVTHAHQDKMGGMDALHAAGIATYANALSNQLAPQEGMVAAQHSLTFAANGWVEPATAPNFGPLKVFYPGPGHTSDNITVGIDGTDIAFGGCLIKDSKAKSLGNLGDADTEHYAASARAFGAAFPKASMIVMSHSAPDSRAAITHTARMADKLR
Protocol: (§7) Enzyme Activity: Determination of IC50
(§8) The Class B enzyme activities were measured in the presence of the test inhibitor in a fluorescence assay against a commercially available substrate consisting of a cephalosporin core linking 7-hydroxycoumarin to fluorescein (CCF2-FA). […] In a 384-well microplate, the test inhibitor was incubated with the metallo-β-lactamase enzyme and the substrate for 2 hours at 25° C. […] The IC50 value was determined from semi-logarithmic plots of enzyme inhibition versus inhibitor concentration, with a curve generated using a 4-parameter fit.

IMP-1 = IMP-1 (Serratia marcescens, UniProt P52699); assay: biochemical; type: biochemical; conditions: CCF2-FA substrate, 2 hours at 25° C; read-out: IMP-1 IC50
Chain of IMP-1 (P52699 whole entry, looked up, species assumed): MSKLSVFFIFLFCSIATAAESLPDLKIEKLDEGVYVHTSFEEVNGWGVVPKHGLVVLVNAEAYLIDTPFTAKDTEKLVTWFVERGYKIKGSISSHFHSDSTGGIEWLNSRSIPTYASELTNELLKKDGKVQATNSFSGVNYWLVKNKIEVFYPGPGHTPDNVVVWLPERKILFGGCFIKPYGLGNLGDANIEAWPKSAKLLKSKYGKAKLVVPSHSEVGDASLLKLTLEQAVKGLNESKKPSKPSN
Protocol: as §7, §8

VIM-1 = VIM-1 (Pseudomonas aeruginosa (strain ATCC 15692 / DSM 22644 / CIP 104116 / JCM 14847 / LMG 12228 / 1C / PRS 101 / PAO1), UniProt A0A0F7KYQ8); assay: biochemical; conditions: CCF2-FA substrate, 2 hours at 25° C
Protocol: as §7, §8

[5] = tested on: P. aeruginosa expressing IMP-1, efflux+ (MB9798); type: cell-based, Pseudomonas aeruginosa; conditions: for P. aeruginosa expressing IMP-1, efflux+ (MB9798) MITC95: imipenem at 2 μg/mL, in the presence of a class A, C, D serine β-lactamase inhibitor closely related to relebactam; for Efflux ratio: ratio MITC95 PA_9798/MITC95 PA_9799
Description: as §1

| Structure (SMILES) | P. aeruginosa expressing IMP-1, efflux− (MB9799) MITC95 [1] [µM] | Klebsiella pneumoniae expressing VIM-1 (IHMA599644) MITC95 [2] [µM] | Serratia marcescens expressing IMP-1 (CL5741) MITC95 [3] [µM] | Escherichia coli expressing NDM-1 (CLB30016) MITC95 [4] [µM] | IC50 (NDM-1) [nM] | IC50 (IMP-1) [nM] | IC50 (VIM-1) [nM] | P. aeruginosa expressing IMP-1, efflux+ (MB9798) MITC95 [5] [µM] | Efflux ratio [5] |
| --- | --- | --- | --- | --- | --- | --- | --- | --- | --- |
| Cc1ccc(-c2ccc(S(=O)(=O)C3CNC3)c(S(N)(=O)=O)c2-c2nn[nH]n2)c2nc(N)[nH]c12 [Example 15, 3-(2-Amino-7-methyl-1H-benzo[d]imidazol-4-yl)-6-(azetidin-3-ylsulfonyl)-2-(2H-tetrazol-5-yl)benzenesulfonamide] | 0.3906 | 0.7813 | 0.3906 | 0.3906 | 0.0897 | 0.613 | 0.206 | 0.3906 | 1.00 |
| NS(=O)(=O)c1c(S(=O)(=O)C2CNC2)ccc(-c2cnc3cc[nH]c3c2)c1-c1nn[nH]n1 [Example 16, 6-(Azetidin-3-ylsulfonyl)-3-(1H-pyrrolo[3,2-b]pyridin-6-yl)-2-(2H-tetrazol-5-yl)benzenesulfonamide] | 1.563 | 3.125 | 0.7813 | 0.3906 | 0.49 | 2.37 | 0.653 | 6.25 | 4.00 |
| Nc1ccc2ncc(-c3ccc(S(=O)(=O)C4CNC4)c(S(N)(=O)=O)c3-c3nn[nH]n3)n2n1 [Example 17, 3-(6-Aminoimidazo[1,2-b]pyridazin-3-yl)-6-(azetidin-3-ylsulfonyl)-2-(2H-tetrazol-5-yl)benzenesulfonamide] | 1.563 | 6.25 | 3.125 | 3.125 | 0.207 | 0.959 | 0.707 | 3.125 | 2.00 |
| NCCS(=O)(=O)c1ccc(-c2cccc3c2nc(N)n3CC(F)(F)F)c(-c2nn[nH]n2)c1S(N)(=O)=O [Example 18, 3-(2-Amino-1-(2,2,2-trifluoroethyl)-1H-benzo[d]imidazol-4-yl)-6-((2-aminoethyl)sulfonyl)-2-(2H-tetrazol-5-yl)benzenesulfonamide] | 1.563 | 3.125 | 3.125 | 1.563 | 0.442 | 0.227 | 0.361 | 3.125 | 2.00 |
| Cn1c(N)nc2cccc(-c3ccc(S(=O)(=O)C4CNC4)c(S(N)(=O)=O)c3-c3nn[nH]n3)c21 [Example 19, 3-(2-Amino-1-methyl-1H-benzo[d]imidazol-7-yl)-6-(azetidin-3-ylsulfonyl)-2-(2H-tetrazol-5-yl)benzenesulfonamide] | 1.563 | 1.563 | 1.563 | 0.7813 | 0.108 | 2.5 | 0.153 | 6.25 | 4.00 |
| Nc1n[nH]c2cc(-c3ccc(S(=O)(=O)C4CNC4)c(S(N)(=O)=O)c3-c3nn[nH]n3)ccc12 [Example 20] | 1.563 | 3.125 | 1.563 | 3.125 | 0.291 | 1.19 | 0.168 | 3.125 | 2.00 |
